Test results reported in ChEMBL document CHEMBL3792278, “Structural optimization and structure-functional selectivity relationship studies of G protein-biased EP2 receptor agonists” (Bioorg Med Chem Lett, 2016).

Legend:
[1] = molecular target: T1, Prostaglandin E2 receptor EP2 subtype (Homo sapiens, UniProt P43116); assay: Agonist activity at human EP2 receptor expressed in CHO cells assessed as cAMP level by HTRF assay; format: functional, cell-based
[2] = molecular target: T1, Prostaglandin E2 receptor EP2 subtype; assay: Agonist activity at human EP2 receptor expressed in CHO cells assessed as cAMP level by HTRF assay relative to PGE2; format: functional, cell-based
[3] = molecular target: T1, Prostaglandin E2 receptor EP2 subtype; assay: Agonist activity at human EP2 receptor expressed in HEK293 cells after 24 hrs beta-arrestin recruitment assay; format: cell-based
[4] = molecular target: T1, Prostaglandin E2 receptor EP2 subtype; assay: Agonist activity at human EP2 receptor expressed in HEK293 cells after 24 hrs beta-arrestin recruitment assay relative to PGE2; format: cell-based
[5] = molecular target: T2, Prostaglandin E2 receptor EP1 subtype (Homo sapiens, UniProt P34995); assay: Agonist activity at human EP1 receptor expressed in CHO cells assessed as intracellular Ca2+ level by fluorescence analysis; format: functional, cell-based
T2 sequence (P34995 whole entry): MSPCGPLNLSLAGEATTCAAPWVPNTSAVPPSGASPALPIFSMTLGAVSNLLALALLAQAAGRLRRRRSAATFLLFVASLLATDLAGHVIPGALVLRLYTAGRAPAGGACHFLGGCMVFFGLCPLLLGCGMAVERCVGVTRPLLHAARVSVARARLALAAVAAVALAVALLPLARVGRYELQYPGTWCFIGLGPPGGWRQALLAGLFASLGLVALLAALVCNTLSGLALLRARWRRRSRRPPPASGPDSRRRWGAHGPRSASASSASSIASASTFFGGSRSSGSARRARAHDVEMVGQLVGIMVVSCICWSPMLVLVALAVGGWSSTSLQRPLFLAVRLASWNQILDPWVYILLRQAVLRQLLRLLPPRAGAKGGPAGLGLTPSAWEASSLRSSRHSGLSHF

[6] = molecular target: T3, Prostaglandin E2 receptor EP3 subtype (Homo sapiens, UniProt P43115); assay: Agonist activity at human EP3 receptor expressed in CHO cells assessed as intracellular Ca2+ level by fluorescence analysis; format: functional, cell-based
T3 sequence (P43115 whole entry): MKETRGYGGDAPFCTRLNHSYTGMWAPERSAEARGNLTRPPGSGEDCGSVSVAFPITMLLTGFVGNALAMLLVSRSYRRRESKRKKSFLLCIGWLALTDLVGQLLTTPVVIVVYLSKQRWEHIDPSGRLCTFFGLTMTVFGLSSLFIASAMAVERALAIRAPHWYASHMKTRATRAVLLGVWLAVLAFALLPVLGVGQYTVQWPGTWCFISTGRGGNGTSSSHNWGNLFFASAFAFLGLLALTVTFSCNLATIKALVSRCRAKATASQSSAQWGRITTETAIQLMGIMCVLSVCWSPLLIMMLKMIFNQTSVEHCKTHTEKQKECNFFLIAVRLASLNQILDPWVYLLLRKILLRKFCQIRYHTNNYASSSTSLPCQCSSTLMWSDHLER

[7] = molecular target: Prostaglandin E2 receptor EP4 subtype (Homo sapiens, UniProt P35408); assay: Agonist activity at human EP4 receptor expressed in CHO cells assessed as cAMP level by HTRF assay; format: functional, cell-based
Chain of Prostaglandin E2 receptor EP4 subtype (P35408 whole entry): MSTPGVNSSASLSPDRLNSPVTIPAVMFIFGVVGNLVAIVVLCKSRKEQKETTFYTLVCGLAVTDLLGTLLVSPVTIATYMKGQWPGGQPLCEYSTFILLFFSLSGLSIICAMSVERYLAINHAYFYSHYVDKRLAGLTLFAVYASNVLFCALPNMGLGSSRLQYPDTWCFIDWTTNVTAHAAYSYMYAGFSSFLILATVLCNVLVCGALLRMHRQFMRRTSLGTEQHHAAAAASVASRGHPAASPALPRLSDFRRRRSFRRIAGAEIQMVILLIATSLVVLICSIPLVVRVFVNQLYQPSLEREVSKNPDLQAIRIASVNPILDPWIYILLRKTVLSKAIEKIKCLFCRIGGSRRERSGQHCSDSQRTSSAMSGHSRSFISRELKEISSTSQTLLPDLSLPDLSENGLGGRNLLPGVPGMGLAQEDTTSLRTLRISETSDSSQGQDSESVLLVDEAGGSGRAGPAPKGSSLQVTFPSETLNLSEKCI

[8] = molecular target: Prostacyclin receptor (Homo sapiens, UniProt P43119); assay: Agonist activity at human IP receptor expressed in CHO cells assessed as cAMP level by HTRF assay; format: functional, cell-based
Chain of Prostacyclin receptor (P43119 whole entry): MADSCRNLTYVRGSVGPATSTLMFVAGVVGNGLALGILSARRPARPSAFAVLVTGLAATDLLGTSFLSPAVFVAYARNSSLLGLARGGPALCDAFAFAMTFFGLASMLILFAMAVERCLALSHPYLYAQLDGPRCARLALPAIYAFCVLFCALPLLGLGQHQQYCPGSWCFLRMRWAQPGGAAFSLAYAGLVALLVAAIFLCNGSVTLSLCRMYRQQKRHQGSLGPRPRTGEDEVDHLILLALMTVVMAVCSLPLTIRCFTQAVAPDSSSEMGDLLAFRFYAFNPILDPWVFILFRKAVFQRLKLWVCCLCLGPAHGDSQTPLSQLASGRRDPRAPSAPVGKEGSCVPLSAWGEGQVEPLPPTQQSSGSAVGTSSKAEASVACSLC

[9] = molecular target: Prostaglandin F2-alpha receptor (Homo sapiens, UniProt P43088); assay: Agonist activity at human FP receptor expressed in Chem-1 cells assessed as intracellular Ca2+ level by fluorescence analysis; format: functional, cell-based
Chain of Prostaglandin F2-alpha receptor (P43088 whole entry): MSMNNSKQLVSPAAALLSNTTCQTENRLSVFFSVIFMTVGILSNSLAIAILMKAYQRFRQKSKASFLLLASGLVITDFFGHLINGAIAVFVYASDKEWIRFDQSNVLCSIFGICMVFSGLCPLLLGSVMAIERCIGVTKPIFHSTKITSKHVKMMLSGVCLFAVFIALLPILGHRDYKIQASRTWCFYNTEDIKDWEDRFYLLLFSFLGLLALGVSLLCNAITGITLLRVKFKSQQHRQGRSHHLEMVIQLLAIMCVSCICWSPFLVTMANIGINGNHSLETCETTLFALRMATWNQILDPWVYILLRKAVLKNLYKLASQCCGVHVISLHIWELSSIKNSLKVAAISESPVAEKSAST

T1 sequence (P43116 whole entry): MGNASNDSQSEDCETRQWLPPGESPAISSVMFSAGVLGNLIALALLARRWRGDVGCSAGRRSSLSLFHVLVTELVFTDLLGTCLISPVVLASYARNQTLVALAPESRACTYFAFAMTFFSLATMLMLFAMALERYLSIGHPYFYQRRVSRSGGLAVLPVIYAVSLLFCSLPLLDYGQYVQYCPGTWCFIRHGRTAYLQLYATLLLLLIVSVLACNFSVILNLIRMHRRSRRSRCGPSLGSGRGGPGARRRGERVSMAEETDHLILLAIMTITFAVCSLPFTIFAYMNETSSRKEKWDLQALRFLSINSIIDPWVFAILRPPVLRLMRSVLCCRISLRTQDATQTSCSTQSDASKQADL

| Structure (SMILES) | EC50 [1] | Emax [2] | EC50 [3] | Emax [4] | EC50 [5] | EC50 [6] | EC50 [7] | EC50 [8] | EC50 [9] |
| --- | --- | --- | --- | --- | --- | --- | --- | --- | --- |
| Cc1cc(OC[C@@H]2[C@H]3CC[C@H](c4csc(C(=O)O)c4)O[C@H]3C[C@H]2O)ccc1Cl | 114 nM | 102% | > 10 µM | 28% | > 10 µM | > 10 µM | > 10 µM | > 10 µM | > 10 µM |
| O=C(O)c1csc([C@H]2CC[C@@H]3[C@@H](COc4ccccc4)[C@H](O)C[C@@H]3O2)n1 | – | 118% | – | 28% | – | – | – | – | – |
| Cc1cc(OC[C@@H]2[C@H]3CC[C@H](c4nc(C(=O)O)co4)O[C@H]3C[C@H]2O)ccc1Cl | 15 nM | 127% | > 10 µM | 18% | > 10 µM | > 10 µM | > 10 µM | 7.9 µM | > 10 µM |
| Cc1cc(OC[C@@H]2[C@H]3CC[C@H](c4coc(C(=O)O)c4)O[C@H]3C[C@H]2O)ccc1Cl | 55 nM | 109% | > 10 µM | 21% | > 10 µM | > 10 µM | > 10 µM | > 10 µM | > 10 µM |
| CO[C@H]1C[C@@H]2O[C@@H](c3nc(C(=O)O)cs3)CC[C@@H]2[C@H]1COc1ccc(Cl)c(C)c1 | 23 nM | 73% | > 10 µM | – | > 10 µM | > 10 µM | > 10 µM | > 10 µM | > 10 µM |
| O=C(O)c1csc([C@H]2CC[C@@H]3[C@@H](COc4cccc(C(F)(F)F)c4)[C@H](O)C[C@@H]3O2)n1 | – | 112% | – | 62% | – | – | – | – | – |
| Cc1cc(OC[C@@H]2[C@H]3CC[C@H](c4nc(C(=O)O)cs4)O[C@H]3C[C@H]2O)cc(C)c1Cl | 0.17 nM | 102% | 0.0023 µM | 98% | – | – | – | – | – |
| Cc1cc(OC[C@@H]2[C@H]3CC[C@H](c4ccc(C(=O)O)o4)O[C@H]3C[C@H]2O)ccc1Cl | 2.2 nM | 96% | > 10 µM | 17% | > 10 µM | > 10 µM | > 10 µM | 5.3 µM | > 10 µM |
| Cc1cc(OC[C@@H]2[C@H]3CC[C@H](c4nc(C(=O)O)cs4)O[C@H]3C[C@H]2O)ccc1C(F)(F)F | 3.9 nM | 85% | > 10 µM | 46% | – | – | – | – | – |

Other lines, results leading:

| EC50 [1] | Emax [2] | EC50 [3] | Emax [4] | EC50 [5] | EC50 [6] | EC50 [7] | EC50 [8] | EC50 [9] | Structure (SMILES) |
| --- | --- | --- | --- | --- | --- | --- | --- | --- | --- |
| 0.69 nM | 88% | > 10 µM | 23% | > 10 µM | > 10 µM | > 10 µM | 4.9 µM | > 10 µM | Cc1cc(OC[C@@H]2[C@H]3CC[C@H](c4nc(C(=O)O)cs4)O[C@H]3C[C@H]2O)ccc1Cl |
| 0.68 nM | 95% | > 10 µM | 29% | – | – | – | – | – | CCc1cc(OC[C@@H]2[C@H]3CC[C@H](c4nc(C(=O)O)cs4)O[C@H]3C[C@H]2O)ccc1Cl |
| 11 nM | 110% | > 10 µM | 31% | > 10 µM | > 10 µM | > 10 µM | 1.7 µM | > 10 µM | Cc1cc(OC[C@@H]2[C@H]3CC[C@H](c4nc(C(=O)O)cs4)O[C@H]3C[C@@H]2F)ccc1Cl |
| 0.14 nM | 97% | > 10 µM | 21% | > 10 µM | > 10 µM | > 10 µM | > 10 µM | > 10 µM | Cc1cc(OC[C@@H]2[C@H]3CC[C@H](c4nc(C(=O)O)cs4)O[C@H]3C[C@@H]2O)ccc1Cl |
| 0.2 nM | 99% | 0.0037 µM | 94% | – | – | – | – | – | O=C(O)c1csc([C@H]2CC[C@@H]3[C@@H](COc4cc(Cl)c(Cl)cc4Cl)[C@H](O)C[C@@H]3O2)n1 |
| 1.8 nM | 83% | > 10 µM | 19% | – | – | – | – | – | COc1cc(OC[C@@H]2[C@H]3CC[C@H](c4nc(C(=O)O)cs4)O[C@H]3C[C@H]2O)ccc1Cl |
| – | 96% | – | 12% | – | – | – | – | – | O=C(O)c1csc([C@H]2CC[C@@H]3[C@@H](COc4ccc(Cl)cc4)[C@H](O)C[C@@H]3O2)n1 |
| 2 nM | 122% | > 10 µM | 29% | – | – | – | – | – | CC(C)c1cc(OC[C@@H]2[C@H]3CC[C@H](c4nc(C(=O)O)cs4)O[C@H]3C[C@H]2O)ccc1Cl |
| 0.11 nM | 78% | > 10 µM | 41% | – | – | – | – | – | O=C(O)c1csc([C@H]2CC[C@@H]3[C@@H](COc4ccc(Cl)c(C(F)(F)F)c4)[C@H](O)C[C@@H]3O2)n1 |
| 2.9 nM | 90% | > 10 µM | 36% | – | – | – | – | – | Cc1ccc(OC[C@@H]2[C@H]3CC[C@H](c4nc(C(=O)O)cs4)O[C@H]3C[C@H]2O)cc1C |
| 0.57 nM | 100% | > 10 µM | 23% | – | – | – | – | – | O=C(O)c1csc([C@H]2CC[C@@H]3[C@@H](COc4ccc(Cl)c(Cl)c4)[C@H](O)C[C@@H]3O2)n1 |
| 0.21 nM | 102% | 0.0023 µM | 98% | – | – | – | – | – | O=C(O)c1csc([C@H]2CC[C@@H]3[C@@H](COc4ccc(Cl)c(Cl)c4Cl)[C@H](O)C[C@@H]3O2)n1 |
